PubChem BioAssay AID248 (DTP/NCI, 2004)
Where “and” joins values, the source holds several entries; their conditions need not be identical. Equal values may be shown once. Toxic doses and inconclusive results are not listed. Rule as the data show it: active = T/C of 150% or more; inactive = T/C below 125%.

System: L1210 leukemia ip in BDF1 mice, survival T/C
Assay: NCI In Vivo Anticancer Drug Screen. Data for tumor model L1210 Leukemia (intraperitoneal) in B6D2F1 (BDF1) mice
Conditions: endpoint: mean survival time, higher = longer survival
In short: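 Tumor was transplanted into mice, which were then dosed with test compound or vehicle alone. Survival was recorded for each group, and the treated figure was expressed relative to the control figure.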

[1] = dose: 400.0 mg/kg/injection, schedule: Q01DX001 (ip), vehicle: saline with Tween-80
[2] = dose: 100.0 mg/kg/injection, schedule: Q04DX002 (ip), vehicle: saline
[3] = dose: 200.0 mg/kg/injection, schedule: Q04DX002 (ip), vehicle: saline
[4] = dose: 400.0 mg/kg/injection, schedule: Q04DX002 (ip), vehicle: saline
[5] = dose: 50.0 mg/kg/injection, schedule: Q01DX009 (ip), vehicle: saline with Tween-80
[6] = dose: 100.0 mg/kg/injection, schedule: Q01DX009 (ip), vehicle: saline with Tween-80
[7] = dose: 200.0 mg/kg/injection, schedule: Q01DX009 (ip), vehicle: saline with Tween-80
[8] = dose: 100.0 mg/kg/injection, schedule: Q01DX001 (ip), vehicle: saline
[9] = dose: 100.0 mg/kg/injection, schedule: Q01DX009 (ip), vehicle: saline
[10] = dose: 100.0 mg/kg/injection, schedule: Q04DX003 (ip), vehicle: saline
[11] = dose: 200.0 mg/kg/injection, schedule: Q01DX001 (ip), vehicle: saline
[12] = dose: 200.0 mg/kg/injection, schedule: Q04DX003 (ip), vehicle: saline
[13] = dose: 400.0 mg/kg/injection, schedule: Q01DX001 (ip), vehicle: saline
[14] = dose: 100.0 mg/kg/injection, schedule: Q04DX003 (ip), vehicle: saline with Tween-80
[15] = dose: 200.0 mg/kg/injection, schedule: Q04DX003 (ip), vehicle: saline with Tween-80
[16] = dose: 400.0 mg/kg/injection, schedule: Q01DX009 (ip), vehicle: saline with Tween-80
[17] = dose: 400.0 mg/kg/injection, schedule: Q04DX003 (ip), vehicle: saline with Tween-80
[18] = dose: 25.0 mg/kg/injection, schedule: Q01DX009 (ip), vehicle: saline with Tween-80

Measured: T/C

C[n+]1ccc(Nc2ccc(NC(=O)c3ccc(N)cc3[N+](=O)[O-])cc2)cc1
inactive: dose: 25.0 mg/kg/injection, schedule: Q01DX001 (ip), vehicle: saline with Tween-80 93 % of control and 107 % of control | dose: 50.0 mg/kg/injection, schedule: Q01DX001 (ip), vehicle: saline with Tween-80 97 % of control | dose: 100.0 mg/kg/injection, schedule: Q04DX002 (ip), vehicle: saline with Tween-80 108 % of control and 117 % of control | dose: 200.0 mg/kg/injection, schedule: Q04DX002 (ip), vehicle: saline with Tween-80 94 % of control and 101 % of control | [1] 104 % of control and 91 % of control | dose: 400.0 mg/kg/injection, schedule: Q04DX002 (ip), vehicle: saline with Tween-80 103 % of control and 114 % of control

C[S+](C)CCS(=O)(=O)[O-]
inactive: [2] 99 % of control | [3] 96 % of control | [4] 96 % of control

CC(C)C#C/C=C/C(C)C
inactive: [5] 95 % of control | [6] 95 % of control | [7] 103 % of control

CC(C)NC(=O)Nc1ccc(F)cc1
inactive: dose: 100.0 mg/kg/injection, schedule: Q01DX009 (ip), vehicle: acetone 92 % of control | dose: 200.0 mg/kg/injection, schedule: Q01DX009 (ip), vehicle: acetone 101 % of control | dose: 400.0 mg/kg/injection, schedule: Q01DX009 (ip), vehicle: acetone 94 % of control

CCOC(=O)C(NC(C)=O)C(N)=S (stereo not drawn)
inactive: [8] 99 % of control | [9] 108 % of control | [10] 102 % of control | [11] 93 % of control | dose: 200.0 mg/kg/injection, schedule: Q01DX009 (ip), vehicle: saline 97 % of control | [12] 96 % of control | [13] 94 % of control | dose: 400.0 mg/kg/injection, schedule: Q01DX009 (ip), vehicle: saline 105 % of control | dose: 400.0 mg/kg/injection, schedule: Q04DX003 (ip), vehicle: saline 106 % of control

CC(C)=CCC1=CC(=O)c2ccccc2C1=O
inactive: dose: 12.0 mg/kg/injection, schedule: Q01DX009 (ip), vehicle: water 97 % of control | dose: 25.0 mg/kg/injection, schedule: Q01DX009 (ip), vehicle: water 102 % of control | dose: 50.0 mg/kg/injection, schedule: Q01DX001 (ip), vehicle: water 96 % of control | dose: 50.0 mg/kg/injection, schedule: Q01DX009 (ip), vehicle: water 96 % of control | dose: 100.0 mg/kg/injection, schedule: Q01DX001 (ip), vehicle: water 102 % of control | dose: 100.0 mg/kg/injection, schedule: Q01DX009 (ip), vehicle: water 95 % of control | dose: 200.0 mg/kg/injection, schedule: Q01DX001 (ip), vehicle: water 105 % of control | dose: 400.0 mg/kg/injection, schedule: Q01DX001 (ip), vehicle: water 92 % of control

Nc1nc(N)c(N=C/C=C\c2ccc([N+](=O)[O-])cc2)c(-c2ccccc2)n1
inactive: dose: 50.0 mg/kg/injection, schedule: Q01DX001 (ip), vehicle: saline 113 % of control | [8] 107 % of control | [11] 91 % of control | [13] 103 % of control

O=C(COc1ccc(Cl)cc1Cl)Oc1c(Cl)c(Cl)c(Cl)c(Cl)c1Cl
inactive: [6] 88 % of control | [14] 91 % of control | [7] 88 % of control | [15] 92 % of control | [16] 92 % of control | [17] 86 % of control

COc1cc2c3c(c1)-c1c(ccc(OC)c1O)CC3N(C)CC2 (stereo not drawn)
inactive: dose: 25.0 mg/kg/injection, schedule: Q04DX003 (ip), vehicle: DMSO 93 % of control | dose: 50.0 mg/kg/injection, schedule: Q04DX003 (ip), vehicle: DMSO 91 % of control | dose: 100.0 mg/kg/injection, schedule: Q04DX003 (ip), vehicle: DMSO 91 % of control

CN(CCN(C)Cc1ccccc1)Cc1ccccc1
inactive: dose: 50.0 mg/kg/injection, schedule: Q01DX009 (ip), vehicle: saline 98 % of control | [9] 101 % of control | [10] 103 % of control | [12] 98 % of control

O=S(=O)(/C=C(/Cl)c1ccccc1)c1ccccc1
inactive: dose: 25.0 mg/kg/injection, schedule: Q01DX009 (ip), vehicle: acetone 92 % of control | dose: 50.0 mg/kg/injection, schedule: Q01DX009 (ip), vehicle: acetone 90 % of control | dose: 100.0 mg/kg/injection, schedule: Q01DX001 (ip), vehicle: acetone 101 % of control | dose: 100.0 mg/kg/injection, schedule: Q04DX003 (ip), vehicle: acetone 103 % of control | dose: 200.0 mg/kg/injection, schedule: Q01DX001 (ip), vehicle: acetone 102 % of control | dose: 400.0 mg/kg/injection, schedule: Q01DX001 (ip), vehicle: acetone 104 % of control

CCOC(=O)c1c(C)[nH]c(C)cc1=O
inactive: dose: 100.0 mg/kg/injection, schedule: Q01DX001 (ip), vehicle: saline with Tween-80 95 % of control | [6] 98 % of control | dose: 200.0 mg/kg/injection, schedule: Q01DX001 (ip), vehicle: saline with Tween-80 95 % of control | [7] 102 % of control | [1] 90 % of control | [16] 95 % of control

c1ccc2c(c1)C[n+]1ccccc1-2
inactive: dose: 75.0 mg/kg/injection, schedule: Q01DX001 (ip), vehicle: other 102 % of control

CS(=O)(=O)OCC1CC=CCC1COS(C)(=O)=O (stereo not drawn)
inactive: dose: 100.0 mg/kg/injection, schedule: Q01DX009 (ip), vehicle: Klucel (hydroxypropylcellulose) (HPC) 96 % of control | dose: 200.0 mg/kg/injection, schedule: Q01DX009 (ip), vehicle: Klucel (hydroxypropylcellulose) (HPC) 102 % of control | dose: 400.0 mg/kg/injection, schedule: Q01DX009 (ip), vehicle: Klucel (hydroxypropylcellulose) (HPC) 94 % of control

COc1ccc(/C=C/C(=O)c2cc(C(=O)O)c(OC)cc2OC)cc1OC
inactive: dose: 12.5 mg/kg/injection, schedule: Q01DX009 (ip), vehicle: saline with Tween-80 111 % of control | [18] 93 % of control | [5] 98 % of control | [6] 98 % of control | [7] 95 % of control

CCOC(=O)c1[nH]c(-c2ccccc2)cc1-c1ccccc1
inactive: dose: 100.0 mg/kg/injection, schedule: Q04DX003 (ip), vehicle: Klucel (hydroxypropylcellulose) (HPC) 118 % of control | dose: 200.0 mg/kg/injection, schedule: Q04DX003 (ip), vehicle: Klucel (hydroxypropylcellulose) (HPC) 108 % of control | dose: 400.0 mg/kg/injection, schedule: Q04DX003 (ip), vehicle: Klucel (hydroxypropylcellulose) (HPC) 108 % of control

NC(CSS(=O)(=O)O)=NCc1ccoc1
inactive: dose: 12.5 mg/kg/injection, schedule: Q04DX002 (ip), vehicle: saline with Tween-80 98 % of control | dose: 25.0 mg/kg/injection, schedule: Q04DX002 (ip), vehicle: saline with Tween-80 98 % of control | dose: 50.0 mg/kg/injection, schedule: Q04DX002 (ip), vehicle: saline with Tween-80 95 % of control and 98 % of control

CCN=C(c1ccc(NC(=O)c2ccc(C(=O)Nc3ccc(C(=NCC)N(CC)CC)cc3)cc2)cc1)N(CC)CC
inactive: dose: 0.94 mg/kg/injection, schedule: Q01DX Z (ip), vehicle: carboxymethylcellulose (CMC) 94 % of control | dose: 1.87 mg/kg/injection, schedule: Q01DX Z (ip), vehicle: carboxymethylcellulose (CMC) 95 % of control

C/C=C/C=C/COC(=O)CCCCCCC
inactive: dose: 25.0 mg/kg/injection, schedule: Q04DX002 (ip), vehicle: saline 107 % of control | dose: 50.0 mg/kg/injection, schedule: Q04DX002 (ip), vehicle: saline 103 % of control | [2] 103 % of control | [3] 110 % of control and 112 % of control | [4] 100 % of control

Cc1c(Cl)c(Cl)c(Cl)c(Cl)c1Cl
inactive: [14] 101 % of control | [15] 95 % of control | [17] 95 % of control

C=CCOCC(O)CNCC(O)COCC=C (stereo not drawn)
inactive: [18] 98 % of control | dose: 25.0 mg/kg/injection, schedule: Q04DX003 (ip), vehicle: saline with Tween-80 100 % of control | [5] 101 % of control | dose: 50.0 mg/kg/injection, schedule: Q04DX003 (ip), vehicle: saline with Tween-80 92 % of control | [6] 101 % of control | [14] 102 % of control

O=c1[nH][nH]c(=S)c2[nH]c(=S)n(Cc3ccccc3)c12
inactive: [8] 90 % of control | [11] 93 % of control | [13] 90 % of control

O=C(/C(=N\N=C\c1c(O)ccc2ccccc12)c1ccccc1)c1ccccc1
inactive: [14] 96 % of control | [15] 98 % of control | [17] 94 % of control
